In patent US20030152512A1, “Imaging thrombus with glycoprotein llb/llla antagonists” (priority 2001, published 2003):
Non-standard residues stand in square brackets, D forms with d. Residues, ends and D or L forms follow the SMILES beside them. *: point of attachment. X1 = O=C(c1ccc(NN=Cc2ccccc2S(=O)(=O)O)nc1)*; NMeR = CN[C@@H](CCCNC(=N)N)C(=O)O; HYNIC = NNc1ccc(C(=O)*)cn1; 3Amb = NCc1cccc(C(=O)O)c1

Experiments:
[1] = test system: venous thrombus; assay: Thrombus imaging in canine deep vein thrombosis (DVT) model, gamma scintigraphy (camera ROI); assay type: in vivo, dog; conditions: for efficacy as thrombus imaging agent (in words): dog DVT model; for Thrombus to Blood Ratio in DVT Model (Camera ROI) / Thrombus to Muscle Ratio in DVT Model (Camera ROI): dog
Protocol: (§1) Canine Deep Vein Thrombosis Model: This model incorporates the triad of events (hypercoagulatible state, period of stasis, low shear environment) essential for the formation of a venous fibrin-rich actively growing thrombus. The procedure was as follows: Adult mongrel dogs of either sex (9-13 kg) were anesthetized with pentobarbital sodium (35 mg/kg,i.v.) and ventilated with room air via an endotracheal tube (12 strokes/min, 25 ml/kg). For arterial pressure determination, the right femoral artery was cannulated with a saline-filled polyethylene catheter (PE-240) and connected to a Statham pressure transducer (P23ID; Oxnard, Calif.). Mean arterial blood pressure was determined via damping the pulsatile pressure signal. Heart rate was monitored using a cardiotachometer (Biotach, Grass Quincy, Mass.) triggered from a lead II electrocardiogram generated by limb leads. The right femoral vein was cannulated (PE-240) for drug administration. A 5 cm segment of both jugular veins was isolated, freed from fascia and circumscribed with silk suture. A microthermister probe was placed on the vessel which serves as an indirect measure of venous flow. A balloon embolectomy catheter was utilized to induce the 15 min period of stasis during which time a hypercoagulatible state was then induced using 5 U thrombin (American Diagnosticia, Greenwich Conn.) administered into the occluded segment. Fifteen minutes later, flow was reestablished by deflating the balloon. The radiopharmaceutical was infused during the first 5 minutes of reflow and the rate of incorporation monitored using gamma scintigraphy.

[2] = Blood clearance in canine deep vein thrombosis (DVT) model; conditions: both, mongrel, dog, iv
Protocol: as §1

[3] = biological target: T1, Platelet GPIIb/IIIa (Canis lupus familiaris, UniProt A0A8I3N5G5+A0A8I3PMU9); assay: Platelet GPIIb/IIIa binding assay (inhibition of 125I-fibrinogen binding to activated platelets); conditions: reagents (compounds of Examples 1-3); activated canine platelets
T1 construct: from tissue
T1 sequence (A0A8I3N5G5 1-1047): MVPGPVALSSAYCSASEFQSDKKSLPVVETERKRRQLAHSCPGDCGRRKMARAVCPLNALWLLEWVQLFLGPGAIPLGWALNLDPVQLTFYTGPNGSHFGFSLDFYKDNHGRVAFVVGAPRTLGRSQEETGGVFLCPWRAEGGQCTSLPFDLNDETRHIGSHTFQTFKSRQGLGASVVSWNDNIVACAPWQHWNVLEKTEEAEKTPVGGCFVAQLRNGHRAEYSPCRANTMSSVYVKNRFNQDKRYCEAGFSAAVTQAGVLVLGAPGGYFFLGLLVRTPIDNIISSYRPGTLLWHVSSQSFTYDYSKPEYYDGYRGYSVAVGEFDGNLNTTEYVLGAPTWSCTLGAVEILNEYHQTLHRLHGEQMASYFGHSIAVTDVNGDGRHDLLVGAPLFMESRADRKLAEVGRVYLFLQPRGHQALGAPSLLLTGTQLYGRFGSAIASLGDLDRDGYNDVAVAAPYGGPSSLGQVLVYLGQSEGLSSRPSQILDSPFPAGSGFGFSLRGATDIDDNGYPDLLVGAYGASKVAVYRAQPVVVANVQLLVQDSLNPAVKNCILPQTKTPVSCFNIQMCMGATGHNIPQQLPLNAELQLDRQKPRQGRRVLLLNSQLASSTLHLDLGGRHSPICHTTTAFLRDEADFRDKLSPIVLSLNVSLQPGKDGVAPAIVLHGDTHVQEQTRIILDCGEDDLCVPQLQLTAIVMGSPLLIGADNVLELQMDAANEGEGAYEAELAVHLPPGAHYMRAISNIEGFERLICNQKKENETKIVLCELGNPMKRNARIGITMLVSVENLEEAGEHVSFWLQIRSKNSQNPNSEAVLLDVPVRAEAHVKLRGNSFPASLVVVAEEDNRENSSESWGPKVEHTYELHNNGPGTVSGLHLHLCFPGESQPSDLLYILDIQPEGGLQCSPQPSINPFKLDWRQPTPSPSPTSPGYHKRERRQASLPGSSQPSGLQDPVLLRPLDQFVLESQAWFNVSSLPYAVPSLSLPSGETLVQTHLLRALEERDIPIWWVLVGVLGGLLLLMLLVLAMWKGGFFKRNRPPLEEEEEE
T1 sequence (A0A8I3PMU9 1-919): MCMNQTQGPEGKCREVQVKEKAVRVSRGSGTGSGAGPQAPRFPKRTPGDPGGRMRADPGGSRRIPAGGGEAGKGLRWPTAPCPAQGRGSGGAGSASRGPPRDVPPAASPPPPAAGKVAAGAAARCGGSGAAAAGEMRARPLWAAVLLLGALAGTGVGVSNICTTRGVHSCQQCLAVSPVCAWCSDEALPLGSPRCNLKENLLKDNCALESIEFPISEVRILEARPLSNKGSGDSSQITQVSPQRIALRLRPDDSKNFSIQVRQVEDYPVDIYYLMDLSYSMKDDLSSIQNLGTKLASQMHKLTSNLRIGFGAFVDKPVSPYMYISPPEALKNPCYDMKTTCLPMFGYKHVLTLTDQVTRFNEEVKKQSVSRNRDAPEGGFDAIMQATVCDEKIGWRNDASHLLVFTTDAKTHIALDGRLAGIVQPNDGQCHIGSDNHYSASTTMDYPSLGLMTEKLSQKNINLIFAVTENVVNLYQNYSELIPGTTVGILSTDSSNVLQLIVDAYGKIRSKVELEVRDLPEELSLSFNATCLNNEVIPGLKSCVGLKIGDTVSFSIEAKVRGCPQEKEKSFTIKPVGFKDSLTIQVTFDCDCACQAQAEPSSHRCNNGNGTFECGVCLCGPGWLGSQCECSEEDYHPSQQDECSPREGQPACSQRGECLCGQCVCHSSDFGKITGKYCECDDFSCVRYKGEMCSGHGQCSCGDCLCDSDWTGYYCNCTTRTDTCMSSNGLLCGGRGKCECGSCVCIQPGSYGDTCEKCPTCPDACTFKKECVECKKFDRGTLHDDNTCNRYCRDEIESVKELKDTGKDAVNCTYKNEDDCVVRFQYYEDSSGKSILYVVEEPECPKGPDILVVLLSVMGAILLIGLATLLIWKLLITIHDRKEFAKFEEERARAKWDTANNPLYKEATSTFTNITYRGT
Protocol: Platelet GPIIb/IIIa Binding Assay:
During isolation, platelets were rendered quiescent by the addition of aspirin and when appropriate, primed by the addition of PGE 1. Experimentation was completed in a microtiter format with final concentrations between 1 and 2×10^7 platelets/well. Platelets were activated by the addition of CaCl2 (2 mM) and thrombin (0.2 U/mL) while non-activated platelets received buffer. Hirudin (0.5 U/mL) was added to stop the activation reaction.

SMILES: CC(C)[C@H]1NC(=O)c2cc(cc(CNC(=O)[C@H](CC(=O)O)NC(=O)c3ccc(NN)nc3)c2)CNC(=O)[C@H](CC(=O)O)NC(=O)CNC(=O)[C@H](CCCNC(=N)N)N(C)C1=O (99mTc complex, metal not drawn) [Example 4]
- efficacy as thrombus imaging agent (in words) [1]: effective thrombus imaging agents
- Thrombus to Blood Ratio in DVT Model (Camera ROI) ([1]; time 15 min, listed as Ex. 4): 2.00 ± 0.25
- Thrombus to Muscle Ratio in DVT Model (Camera ROI) ([1]; time 15 min, listed as Ex. 4): 3.18 ± 0.45
- Thrombus to Blood Ratio in DVT Model (Camera ROI) ([1]; time 30 min): 2.29 ± 0.60
- Thrombus to Muscle Ratio in DVT Model (Camera ROI) ([1]; time 30 min): 4.31 ± 1.33
- Thrombus to Blood Ratio in DVT Model (Camera ROI) ([1]; time 60 min, listed as Ex. 4): 2.86 ± 0.31
- Thrombus to Muscle Ratio in DVT Model (Camera ROI) ([1]; time 60 min, listed as Ex. 4): 4.31 ± 0.79
- Thrombus to Blood Ratio in DVT Model (Camera ROI) ([1]; time 120 min): 3.36 ± 0.99
- Thrombus to Muscle Ratio in DVT Model (Camera ROI) ([1]; time 120 min): 4.70 ± 1.05
- tissue uptake at 0 h [2]: 0.141 %ID/g
- tissue uptake at 0.25 h [2]: 0.07 %ID/g
- tissue uptake at 0.5 h [2]: 0.067 %ID/g
- tissue uptake at 1 h [2]: 0.053 %ID/g
- tissue uptake at 1.5 h [2]: 0.046 %ID/g
- tissue uptake at 2 h [2]: 0.045 %ID/g

SMILES: CN1C(=O)[C@@H](CCCCNC(=O)c2ccc(NN)nc2)NC(=O)c2cccc(c2)CNC(=O)[C@H](CC(=O)O)NC(=O)CNC(=O)[C@@H]1CCCNC(=N)N (99mTc complex, metal not drawn) [Example 5] (cyclo([NMeR]GD[3Amb][dK](HYNIC)))
- efficacy as thrombus imaging agent (in words) [1]: effective thrombus imaging agents
- Thrombus to Blood Ratio in DVT Model (Camera ROI) ([1]; time 15 min, listed as Ex. 5): 1.64 ± 0.21
- Thrombus to Muscle Ratio in DVT Model (Camera ROI) ([1]; time 15 min, listed as Ex. 5): 2.12 ± 0.29
- Thrombus to Blood Ratio in DVT Model (Camera ROI) ([1]; time 30 min): 1.86 ± 0.23
- Thrombus to Muscle Ratio in DVT Model (Camera ROI) ([1]; time 30 min): 2.27 ± 0.29
- Thrombus to Blood Ratio in DVT Model (Camera ROI) ([1]; time 60 min, listed as Ex. 5): 2.13 ± 0.23
- Thrombus to Muscle Ratio in DVT Model (Camera ROI) ([1]; time 60 min, listed as Ex. 5): 2.66 ± 0.29
- Thrombus to Blood Ratio in DVT Model (Camera ROI) ([1]; time 120 min): 2.57 ± 0.25
- Thrombus to Muscle Ratio in DVT Model (Camera ROI) ([1]; time 120 min): 3.34 ± 0.18
- tissue uptake at 0 h [2]: 0.11 ± 0.01 %ID/g
- tissue uptake at 0.25 h [2]: 0.039 ± 0.003 %ID/g
- tissue uptake at 0.5 h [2]: 0.027 ± 0.003 %ID/g
- tissue uptake at 1 h [2]: 0.021 ± 0.002 %ID/g
- tissue uptake at 1.5 h [2]: 0.018 ± 0.002 %ID/g
- tissue uptake at 2 h [2]: 0.017 ± 0.002 %ID/g

SMILES: CC(C)[C@H]1NC(=O)c2cc(cc(CNC(=O)[C@H](CC(=O)O)NC(=O)c3ccc(N/N=C/c4ccccc4S(=O)(=O)O)nc3)c2)CNC(=O)[C@H](CC(=O)O)NC(=O)CNC(=O)[C@H](CCCNC(=N)N)N(C)C1=O [Example 1]
- IC50 [3]: 7 nM

SMILES: CN1C(=O)[C@@H](CCCCNC(=O)c2ccc(NN=Cc3ccccc3S(=O)(=O)O)nc2)NC(=O)c2cccc(c2)CNC(=O)[C@H](CC(=O)O)NC(=O)CNC(=O)[C@@H]1CCCNC(=N)N [Example 2, cyclo{N-Me-Arg-Gly-Asp-Mamb-D-Lys([2-[[[5-[carbonyl]-2-pyridinyl]hydrazono]methyl]-benzenesulfonic acid])}] (cyclo([NMeR]GD[3Amb][dK](X1)))
- IC50 [3]: 14 nM

SMILES: N=C(N)c1ccc(C2=NOC(CC(=O)NCC(NC(=O)c3ccc(NN=Cc4ccccc4S(=O)(=O)O)nc3)C(=O)O)C2)cc1 (stereo not drawn) [Example 3]
- IC50 [3]: 66 nM

SMILES: CC(C)[C@H]1NC(=O)c2cc(cc(NC(=O)CCCCCNC(=O)c3ccc(NN)nc3)c2)CNC(=O)[C@H](CC(=O)O)NC(=O)CNC(=O)[C@H](CCCNC(=N)N)N(C)C1=O [Example 7, ^99mTc(cyclo(D-Val-NmeArg-Gly-Asp-Mamb(hydrazino-nicotinyl-5-Aca)))(tricine)(TPPTS), metal not drawn]
- efficacy as thrombus imaging agent (in words) [1]: effective thrombus imaging agents
- Thrombus to Blood Ratio in DVT Model (Camera ROI) ([1]; time 15 min, listed as Ex. 7): 2.10 ± 0.10
- Thrombus to Muscle Ratio in DVT Model (Camera ROI) ([1]; time 15 min, listed as Ex. 7): 3.40 ± 0.30
- Thrombus to Blood Ratio in DVT Model (Camera ROI) ([1]; time 30 min): 3.10 ± 0.42
- Thrombus to Muscle Ratio in DVT Model (Camera ROI) ([1]; time 30 min): 4.80 ± 0.38
- Thrombus to Blood Ratio in DVT Model (Camera ROI) ([1]; time 60 min, listed as Ex. 7): 5.30 ± 0.91
- Thrombus to Muscle Ratio in DVT Model (Camera ROI) ([1]; time 60 min, listed as Ex. 7): 7.00 ± 1.40
- Thrombus to Blood Ratio in DVT Model (Camera ROI) ([1]; time 120 min): 6.60 ± 1.42
- Thrombus to Muscle Ratio in DVT Model (Camera ROI) ([1]; time 120 min): 9.90 ± 2.64
- tissue uptake at 0 h [2]: 0.119 ± 0.003 %ID/g
- tissue uptake at 0.25 h [2]: 0.08 ± 0.003 %ID/g
- tissue uptake at 0.5 h [2]: 0.066 ± 0.004 %ID/g
- tissue uptake at 1 h [2]: 0.059 ± 0.001 %ID/g
- tissue uptake at 1.5 h [2]: 0.05 ± 0.002 %ID/g
- tissue uptake at 2 h [2]: 0.049 ± 0.001 %ID/g
